Laboratory results from patent publication US11090304B2 (Amgen Inc., priority 2018, dated 2021).
Like-named read-outs stand apart in the source and are kept apart here.

Experiments:
[1] = target: GDP-bound KRAS protein (aa 1-169), containing both G12C and C118A amino acid substitutions (Homo sapiens, UniProt P01116, C118A/G12C); assay: Coupled nucleotide exchange assay (SOS-mediated, AlphaScreen); assay type: biochemical; conditions: 5 min compound pre-incubation; for IC50: read-out: Coupled exchange IC50 (5 min)
[2] = tested on: Phosphorylation of ERK1/2 in MIA PaCa-2 cells; assay: Phospho-ERK1/2 MSD assay in MIA PaCa-2 cells; assay type: cell-based; conditions: read-out: p-ERK IC50 (2 h; MIA PaCa-2), 2 h compound treatment
In short: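 IC50 comes from a 4-parameter logistic fit of MSD phospho-ERK1/2 signal in lysates. Before lysis, MIA PaCa-2 or A549 cells were exposed to titrated compound for 2 or 4 h at 37 °C, followed by a 10 min 10 ng/mL EGF stimulus.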

Chain of GDP-bound KRAS protein (aa 1-169), containing both G12C and C118A amino acid substitutions (P01116 1-169 isoform P01116-2 G12C/C118A): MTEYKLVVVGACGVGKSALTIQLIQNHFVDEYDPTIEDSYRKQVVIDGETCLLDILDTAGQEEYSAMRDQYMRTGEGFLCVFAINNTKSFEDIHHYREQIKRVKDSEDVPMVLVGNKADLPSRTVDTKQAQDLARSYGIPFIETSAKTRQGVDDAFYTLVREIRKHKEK

SMILES	IC50 [1] [nM]	IC50 [2] [nM]	Coupled exchange IC50 (5 min) [1]	IC50 ([2]; Homo sapiens, MIA PaCa-2, 2 h) [nM]
Cc1ccnc(C(C)C)c1-n1c(=O)nc(N2CCN(C(=O)/C=C/CN(C)C)C[C@@H]2C)c2cc(F)c(-c3c(O)cccc3F)nc21 (atropisomer, axis not shown; (M)) [Example 145, (M)-4-((2S)-4-((2E)-4-(Dimethylamino)-2-butenoyl)-2-methyl-piperazinyl)-6-fluoro-7-(2-fluoro-6-hydroxyphenyl)-1-(4-methyl-2-(2-propanyl)-3-pyridinyl)pyrido[2,3-d]pyrimidin-2(1H)-one]	952	3920	–	–
C=CC(=O)N1CCN(c2nc(=O)n(-c3c(C)cc[n+]([O-])c3C(C)C)c3nc(-c4ccccc4F)c(Cl)cc23)C(C)C1 (atropisomer, axis not shown; (M)) [Example 151, (M)-6-Chloro-7-(2-fluorophenyl)-1-(4-methyl-1-oxido-2-(2-propanyl)-3-pyridinyl)-4-((2S)-2-methyl-4-(2-propenoyl)-1-piperazinyl)pyrido[2,3-d]pyrimidin-2(1H)-one]	–	–	0.065 | nda μM	237
C=CC(=O)N1CCN(c2nc(=O)n(-c3c(CN(C)C)ccnc3C(C)C)c3nc(-c4ccccc4F)c(Cl)cc23)[C@@H](C)C1 (atropisomer, axis not shown; (M)) [Example 152, (M)-6-Chloro-1-(4-((dimethylamino)methyl)-2-(2-propanyl)-3-pyridinyl)-7-(2-fluorophenyl)-4-((2S)-2-methyl-4-(2-propenoyl)-1-piperazinyl)pyrido[2,3-d]pyrimidin-2(1H1)-one]	84	21	–	–
C=CC(=O)N1CCN(c2nc(=O)n(-c3cccnc3C(C)C)c3nc(-c4ccccc4F)c(Cl)cc23)[C@@H](C)C1 (single isomer, unassigned) [Example 54-9-2]	–	34	0.046 | nda μM	–
C=CC(=O)N1CCN(c2nc(=O)n(-c3ccccc3C3CCC3)c3nc(-c4c(O)cccc4F)c(Cl)cc23)[C@@H](C)C1 (single isomer, unassigned) [Example 54-10-2]	–	–	0.071 | nda μM	60
C=CC(=O)N1CCN(c2nc(=O)n(-c3cccnc3C(C)C)c3nc(-c4c(O)cccc4F)c(Cl)cc23)[C@@H](C)C1 (single isomer, unassigned) [Example 54-11-1]	–	54	0.049 | nda μM	–
C=CC(=O)N1CCN(c2nc(=O)n(-c3cccnc3C(C)C)c3nc(-c4c(O)cccc4F)c(Cl)cc23)[C@@H](C)C1 (single isomer, unassigned) [Example 54-11-2]	–	174	0.343 | nda μM	–
C=CC(=O)N1CCN(c2nc(=O)n(-c3ccccc3C3CCC3)c3nc(-c4ccccc4F)c(Cl)cc23)[C@@H](C)C1 (single isomer, unassigned) [Example 54-12-1]	–	78	0.13 | nda μM	–
C=CC(=O)N1CCN(c2nc(=O)n(-c3ccccc3C3CCC3)c3nc(-c4ccccc4F)c(Cl)cc23)[C@@H](C)C1 (single isomer, unassigned) [Example 54-12-2]	–	689	0.949 | nda μM	–
C=CC(=O)N1CCN(c2nc(=O)n(-c3c(C(C)C)ccnc3C)c3nc(-c4ccccc4F)c(Cl)cc23)[C@@H](C)C1 (single isomer, unassigned) [Example 54-18-1]	–	36	0.044 | nda μM	–
C=CC(=O)N1CCN(c2nc(=O)n(-c3c(C(C)C)ccnc3C)c3nc(-c4ccccc4F)c(Cl)cc23)[C@@H](C)C1 (single isomer, unassigned) [Example 54-18-2]	–	643	0.729 | nda μM	–
C=CC(=O)N1CCN(c2nc(=O)n(-c3ccccc3C(C)C)c3nc(-c4cc(OC(F)F)ccc4F)c(Cl)cc23)[C@@H](C)C1 (single isomer, unassigned) [Example 54-51-1]	–	–	0.108 | nda μM	263
C=CC(=O)N1CCN(c2nc(=O)n(-c3c(OC)cccc3C(C)C)c3nc(-c4c(O)cccc4F)c(Cl)cc23)[C@@H](C)C1 (single isomer, unassigned) [Example 54-73-1]	–	38	0.025 | nda μM	–
C=CC(=O)N1CCN(c2nc(=O)n(-c3c(OC)cccc3C(C)C)c3nc(-c4c(O)cccc4F)c(Cl)cc23)[C@@H](C)C1 (single isomer, unassigned) [Example 54-73-2]	–	927	0.368 | nda μM	–
C=CC(=O)N1CCN(c2nc(=O)n(-c3ccccc3C(C)C)c3nc(C4=CCCCC4)c(Cl)cc23)[C@@H](C)C1 (single isomer, unassigned) [Example 54-75-1]	–	–	0.419 | nda μM	853
C=CC(=O)N1CCN(c2nc(=O)n(-c3ccccc3C(C)C)c3nc(-c4ccc(F)cc4O)c(Cl)cc23)[C@@H](C)C1 (single isomer, unassigned) [Example 54-77-2]	–	–	0.136 | nda μM	176
C=CC(=O)N1CCN(c2nc(=O)n(-c3ccccc3C(C)C)c3nc(-c4cc(F)ccc4O)c(Cl)cc23)[C@@H](C)C1 (single isomer, unassigned) [Example 54-78-2]	–	–	0.212 | nda μM	311

SMILES	IC50 [1] [nM]	IC50 [2] [nM]	Coupled exchange IC50 (5 min) [1]	IC50 ([2]; Homo sapiens, MIA PaCa-2, 2 h) [nM]
C=CC(=O)N1CCN(c2nc(=O)n(-c3ccccc3C(C)C)c3nc(-c4ccc(F)cc4F)c(Cl)cc23)[C@@H](C)C1 (single isomer, unassigned) [Example 54-85-1]	–	1510	3.4 | nda μM	–
C=CC(=O)N1CCN(c2nc(=O)n(-c3ccccc3C(C)C)c3nc(-c4ccc(F)cc4F)c(Cl)cc23)[C@@H](C)C1 (single isomer, unassigned) [Example 54-85-2]	–	79	0.078 | nda μM	–
C=CC(=O)N1CCN(c2nc(=O)n(-c3ccccc3C(C)C)c3nc(-c4cc(O)ccc4F)c(Cl)cc23)[C@@H](C)C1 (single isomer, unassigned) [Example 54-88-1]	–	–	0.077 | nda μM	84
C=CC(=O)N1CCN(c2nc(=O)n(-c3ccccc3C(C)C)c3nc(-c4cc(O)ccc4Cl)c(Cl)cc23)[C@@H](C)C1 (single isomer, unassigned) [Example 54-90-1]	–	63	0.047 | nda μM	–
C=CC(=O)N1CCN(c2nc(=O)n(-c3ccccc3C(C)C)c3nc(-c4cc(O)ccc4Cl)c(Cl)cc23)[C@@H](C)C1 (single isomer, unassigned) [Example 54-90-2]	–	568	0.633 | nda μM	–
C=CC(=O)N1CCN(c2nc(=O)n(-c3ccccc3C(C)C)c3nc(-c4cc(O)cc(Cl)c4Cl)c(Cl)cc23)[C@@H](C)C1 (single isomer, unassigned) [Example 54-91-1]	–	33	0.021 | nda μM	–
C=CC(=O)N1CCN(c2nc(=O)n(-c3ccccc3C(C)C)c3nc(-c4cc(O)cc(Cl)c4Cl)c(Cl)cc23)[C@@H](C)C1 (single isomer, unassigned) [Example 54-91-2]	–	509	0.181 | nda μM	–
C=CC(=O)N1CCN(c2nc(=O)n(-c3ccccc3C3(C)CC3)c3nc(-c4c(O)cccc4F)c(Cl)cc23)[C@@H](C)C1 (single isomer, unassigned) [Example 54-97-1]	–	1020	0.971 | nda μM	–
C=CC(=O)N1CCN(c2nc(=O)n(-c3ccccc3C3(C)CC3)c3nc(-c4c(O)cccc4F)c(Cl)cc23)[C@@H](C)C1 (single isomer, unassigned) [Example 54-97-2]	–	141	0.044 | nda μM	–
C=CC(=O)N1CCN(c2nc(=O)n(-c3ccccc3C3(C)CC3)c3nc(-c4ccccc4F)c(Cl)cc23)[C@@H](C)C1 (single isomer, unassigned) [Example 54-99-2]	–	–	0.094 | nda μM	174
C=CC(=O)N1CCN(c2nc(=O)n(-c3cccnc3C(C)(C)C)c3nc(-c4c(O)cccc4F)c(Cl)cc23)[C@@H](C)C1 (single isomer, unassigned) [Example 54-103-1]	–	–	0.073 | nda μM	93
C=CC(=O)N1CCN(c2nc(=O)n(-c3c(C(C)C)cccc3N(C)C)c3nc(-c4ccccc4F)c(Cl)cc23)[C@@H](C)C1 (single isomer, unassigned) [Example 54-104-2]	–	–	0.035 | nda μM	210
C=CC(=O)N1CCN(c2nc(=O)n(-c3c(OC)ncnc3C(C)C)c3nc(-c4ccccc4F)c(Cl)cc23)[C@@H](C)C1 (single isomer, unassigned) [Example 54-107-2]	–	–	0.067 | nda μM	48
C=CC(=O)N1CCN(c2nc(=O)n(-c3cncnc3C(C)(C)C)c3nc(-c4ccccc4F)c(Cl)cc23)[C@@H](C)C1 (single isomer, unassigned) [Example 54-110-2]	–	–	0.194 | nda μM	119
C=CC(=O)N1CCN(c2nc(=O)n(-c3cccnc3C(C)(C)C)c3nc(-c4ccccc4F)c(Cl)cc23)[C@@H](C)C1 (single isomer, unassigned) [Example 54-112-1]	–	–	0.075 | nda μM	125
C=CC(=O)N1CCN(c2nc(=O)n(-c3c(C)nc(C)nc3C(C)C)c3nc(-c4c(O)cccc4F)c(Cl)cc23)[C@@H](C)C1 (single isomer, unassigned) [Example 55-4-1]	–	–	0.023 | nda μM	37
C=CC(=O)N1CCN(c2nc(=O)n(-c3c(C)ccnc3N(C)C)c3nc(-c4ccccc4F)c(Cl)cc23)[C@@H](C)C1 (single isomer, unassigned) [Example 55-7-2]	–	–	0.325 | nda μM	587
